Measurements reported in ChEMBL document CHEMBL3244112, “Dipeptides of O-methyl-L-threonine as potential antimalarials” (J Med Chem, 1979).
Calls of active or inactive are those of the source. The rule behind the calls is not given here. Peptide text beside a SMILES is read from it.

How the values were obtained:
Plasmodium berghei [1] = assay: Antimalarial activity against Plasmodium berghei infected in mouse assessed as increase of survival time of host at 160 to 640 mg/kg; type: functional, organism-based
Mus musculus = assay: Toxicity in Plasmodium berghei infected mouse at <640 mg/kg; type: organism-based; settings: in vivo
Plasmodium berghei [2] = assay: Antimalarial activity against Plasmodium berghei infected in mouse assessed as increase of survival time of host at 640 mg/kg; type: functional, organism-based; parameters: dose 640 mg/kg
Plasmodium berghei [3] = assay: Antimalarial activity against Plasmodium berghei infected in mouse assessed as increase of survival time of host; type: functional, organism-based

SMILES | Activity (Plasmodium berghei [1]) | Activity (Mus musculus) | Activity (Plasmodium berghei [2]) | Activity (Plasmodium berghei [3])
CO[C@H](C)[C@H](N)C(=O)O | Active |  |  | 
CO[C@H](C)[C@H](NC(=O)[C@@H](N)CC(C)C)C(=O)O (H-Leu-Thr(Me)-OH) |  | Non-toxic | inactive | 
CO[C@H](C)[C@H](N)C(=O)N[C@@H](CC(C)C)C(=O)O (H-Thr(Me)-Leu-OH) |  | Non-toxic | inactive | 
CO[C@H](C)[C@H](N)C(=O)N[C@H](C(=O)O)[C@@H](C)OC (H-Thr(Me)-Thr(Me)-OH) |  |  | Active | Active
CC(C)C[C@H](N)C(=O)O [LEUCINE] |  | Non-toxic | inactive | 
